Reference: publication PMC8359378 (British Journal of Clinical Pharmacology, 2021)
Marks after values point to notes of the source that are not given here.

Columns and labels:
[1] = test system: rabbit abdominal incision bleeding model; conditions: in combination with clopidogrel; cited from earlier work
[2] = test system: prothrombin time [PT], international normalised ratio [INR]; test: prothrombin time; type: in vivo, human; conditions: any of the dose levels tested in Part A or Part B
[3] = test system: monkey nail‐cut bleeding model; conditions: preclinical; cited from earlier work
healthy subjects = test: safety and tolerability; type: in vivo, human; conditions: Part A

For `Nc1ccc(-c2nc([C@H]3CCc4cc(-c5cc(Cl)ccc5-n5cnnn5)cc(=O)n43)c(F)[nH]2)c(F)n1` [ONO‐7684], the “bleeding risk compared with rivaroxaban” value [1] is given as “lower bleeding risk than rivaroxaban”, the “effect on INR” value [2] is given as “did not significantly affect” and the “effect on PT” value [2] is given as “did not significantly affect”. For the same compound, the bleeding time [3] was “did not prolong bleeding time”, the “treatment‐related TEAE of lethargy (mild), subjects” value (healthy subjects; 5 mg group) was 16.7% and the “treatment‐related TEAE of headache (moderate), subjects” value (healthy subjects; 300 mg group) was 16.7%. The “Abdominal pain upper TEAE, subjects” value (healthy subjects; single dose 1 mg, fasted) was 0 n (%), the “All TEAEs, subjects” value (healthy subjects; single dose 1 mg, fasted) was 0 n (%) and the “Dizziness TEAE, subjects” value (healthy subjects; single dose 1 mg, fasted) was 0 n (%). The “Gonorrhoea TEAE, subjects” value (healthy subjects; single dose 1 mg, fasted) was 0 n (%), the “Headache TEAE, subjects” value (healthy subjects; single dose 1 mg, fasted) was 0 n (%) and the “Lethargy TEAE, subjects” value (healthy subjects; single dose 1 mg, fasted) was 0 n (%). The “Nasopharyngitis TEAE, subjects” value (healthy subjects; single dose 1 mg, fasted) was 0 n (%), the “Nausea TEAE, subjects” value (healthy subjects; single dose 1 mg, fasted) was 0 n (%) and the “Pain TEAE, subjects” value (healthy subjects; single dose 1 mg, fasted) was 0 n (%). The “Skin laceration TEAE, subjects” value (healthy subjects; single dose 1 mg, fasted) was 0 n (%), the “Thrombocytopenia TEAE, subjects” value (healthy subjects; single dose 1 mg, fasted) was 0 n (%) and the “Abdominal pain upper TEAE, subjects” value (healthy subjects; single dose 5 mg, fasted) was 0 n (%). The “All TEAEs, subjects” value (healthy subjects; single dose 5 mg, fasted) was 1 (16.7) n (%), the “Dizziness TEAE, subjects” value (healthy subjects; single dose 5 mg, fasted) was 0 n (%) and the “Gonorrhoea TEAE, subjects” value (healthy subjects; single dose 5 mg, fasted) was 0 n (%). For the same compound, the “Headache TEAE, subjects” value (healthy subjects; single dose 5 mg, fasted) was 0 n (%), the “Lethargy TEAE, subjects” value (healthy subjects; single dose 5 mg, fasted) was 1 (16.7)^b n (%) and the “Nasopharyngitis TEAE, subjects” value (healthy subjects; single dose 5 mg, fasted) was 1 (16.7) n (%). The “Nausea TEAE, subjects” value (healthy subjects; single dose 5 mg, fasted) was 0 n (%), the “Pain TEAE, subjects” value (healthy subjects; single dose 5 mg, fasted) was 0 n (%) and the “Skin laceration TEAE, subjects” value (healthy subjects; single dose 5 mg, fasted) was 0 n (%). The “Thrombocytopenia TEAE, subjects” value (healthy subjects; single dose 5 mg, fasted) was 0 n (%), the “Abdominal pain upper TEAE, subjects” value (healthy subjects; single dose 20 mg, fasted) was 1 (16.7) n (%) and the “All TEAEs, subjects” value (healthy subjects; single dose 20 mg, fasted) was 1 (16.7) n (%). The “Dizziness TEAE, subjects” value (healthy subjects; single dose 20 mg, fasted) was 1 (16.7) n (%), the “Gonorrhoea TEAE, subjects” value (healthy subjects; single dose 20 mg, fasted) was 0 n (%) and the “Headache TEAE, subjects” value (healthy subjects; single dose 20 mg, fasted) was 0 n (%). For the same compound, the “Lethargy TEAE, subjects” value (healthy subjects; single dose 20 mg, fasted) was 0 n (%), the “Nasopharyngitis TEAE, subjects” value (healthy subjects; single dose 20 mg, fasted) was 0 n (%) and the “Nausea TEAE, subjects” value (healthy subjects; single dose 20 mg, fasted) was 1 (16.7) n (%). The “Pain TEAE, subjects” value (healthy subjects; single dose 20 mg, fasted) was 0 n (%), the “Skin laceration TEAE, subjects” value (healthy subjects; single dose 20 mg, fasted) was 0 n (%) and the “Thrombocytopenia TEAE, subjects” value (healthy subjects; single dose 20 mg, fasted) was 0 n (%). The “Abdominal pain upper TEAE, subjects” value (healthy subjects; single dose 80 mg, fasted) was 0 n (%), the “All TEAEs, subjects” value (healthy subjects; single dose 80 mg, fasted) was 2 (33.3) n (%) and the “Dizziness TEAE, subjects” value (healthy subjects; single dose 80 mg, fasted) was 0 n (%). For the same compound, the “Gonorrhoea TEAE, subjects” value (healthy subjects; single dose 80 mg, fasted) was 1 (16.7) n (%), the “Headache TEAE, subjects” value (healthy subjects; single dose 80 mg, fasted) was 1 (16.7) n (%) and the “Lethargy TEAE, subjects” value (healthy subjects; single dose 80 mg, fasted) was 0 n (%). For the same compound, the “Nasopharyngitis TEAE, subjects” value (healthy subjects; single dose 80 mg, fasted) was 0 n (%), the “Nausea TEAE, subjects” value (healthy subjects; single dose 80 mg, fasted) was 0 n (%) and the “Pain TEAE, subjects” value (healthy subjects; single dose 80 mg, fasted) was 0 n (%). For the same compound, the “Skin laceration TEAE, subjects” value (healthy subjects; single dose 80 mg, fasted) was 0 n (%), the “Thrombocytopenia TEAE, subjects” value (healthy subjects; single dose 80 mg, fasted) was 0 n (%) and the “Abdominal pain upper TEAE, subjects” value (healthy subjects; single dose 80 mg, fed) was 0 n (%). The “All TEAEs, subjects” value (healthy subjects; single dose 80 mg, fed) was 1 (16.7) n (%), the “Dizziness TEAE, subjects” value (healthy subjects; single dose 80 mg, fed) was 0 n (%) and the “Gonorrhoea TEAE, subjects” value (healthy subjects; single dose 80 mg, fed) was 0 n (%). The “Headache TEAE, subjects” value (healthy subjects; single dose 80 mg, fed) was 1 (16.7) n (%), the “Lethargy TEAE, subjects” value (healthy subjects; single dose 80 mg, fed) was 0 n (%) and the “Nasopharyngitis TEAE, subjects” value (healthy subjects; single dose 80 mg, fed) was 0 n (%). The “Nausea TEAE, subjects” value (healthy subjects; single dose 80 mg, fed) was 0 n (%), the “Pain TEAE, subjects” value (healthy subjects; single dose 80 mg, fed) was 0 n (%) and the “Skin laceration TEAE, subjects” value (healthy subjects; single dose 80 mg, fed) was 0 n (%). For the same compound, the “Thrombocytopenia TEAE, subjects” value (healthy subjects; single dose 80 mg, fed) was 0 n (%), the “Abdominal pain upper TEAE, subjects” value (healthy subjects; single dose 150 mg, fasted) was 0 n (%) and the “All TEAEs, subjects” value (healthy subjects; single dose 150 mg, fasted) was 0 n (%). For the same compound, the “Dizziness TEAE, subjects” value (healthy subjects; single dose 150 mg, fasted) was 0 n (%), the “Gonorrhoea TEAE, subjects” value (healthy subjects; single dose 150 mg, fasted) was 0 n (%) and the “Headache TEAE, subjects” value (healthy subjects; single dose 150 mg, fasted) was 0 n (%). The “Lethargy TEAE, subjects” value (healthy subjects; single dose 150 mg, fasted) was 0 n (%), the “Nasopharyngitis TEAE, subjects” value (healthy subjects; single dose 150 mg, fasted) was 0 n (%) and the “Nausea TEAE, subjects” value (healthy subjects; single dose 150 mg, fasted) was 0 n (%). The “Pain TEAE, subjects” value (healthy subjects; single dose 150 mg, fasted) was 0 n (%), the “Skin laceration TEAE, subjects” value (healthy subjects; single dose 150 mg, fasted) was 0 n (%) and the “Thrombocytopenia TEAE, subjects” value (healthy subjects; single dose 150 mg, fasted) was 0 n (%). For the same compound, the “Abdominal pain upper TEAE, subjects” value (healthy subjects; single dose 300 mg, fasted) was 0 n (%), the “All TEAEs, subjects” value (healthy subjects; single dose 300 mg, fasted) was 2 (33.3) n (%) and the “Dizziness TEAE, subjects” value (healthy subjects; single dose 300 mg, fasted) was 0 n (%). The “Gonorrhoea TEAE, subjects” value (healthy subjects; single dose 300 mg, fasted) was 0 n (%), the “Headache TEAE, subjects” value (healthy subjects; single dose 300 mg, fasted) was 2 (33.3)^a n (%) and the “Lethargy TEAE, subjects” value (healthy subjects; single dose 300 mg, fasted) was 0 n (%). For the same compound, the “Nasopharyngitis TEAE, subjects” value (healthy subjects; single dose 300 mg, fasted) was 0 n (%), the “Nausea TEAE, subjects” value (healthy subjects; single dose 300 mg, fasted) was 0 n (%) and the “Pain TEAE, subjects” value (healthy subjects; single dose 300 mg, fasted) was 0 n (%). The “Skin laceration TEAE, subjects” value (healthy subjects; single dose 300 mg, fasted) was 0 n (%).
